By AC50 is commonly meant the concentration at which the activity in the assay is half-maximal.

The text below walks through data of ChEMBL document CHEMBL1201862, “PubChem BioAssay data set” (2004).

The source made the active and inactive calls.

Data set [1] in a line: P. falciparum Dd2 growth inhibitors, dose response, SYBR Green, cherry-picked samples (AID 1159567). In kind it is functional, cell-based.
Another data set concerns the target Cytochrome P450 3A4 (Homo sapiens, UniProt P08684).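 Note: CYP3A4 tested as one member of a cytochrome P450 panel screen.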
For a further data set, the target named is Cytochrome P450 2C19 (Homo sapiens, UniProt P33261). Nature of the data set: Cytochrome panel assay with activity outcomes. Panel member name: p450-cyp2c19 Compounds with AC50 equal or less than 10 uM are considered active. In kind it is functional.
In a further data set the target is Cytochrome P450 2C9 (Homo sapiens, UniProt P11712).
The target of data set [2] is T1, Corticotropin-releasing factor receptor 2/Corticotropin-releasing factor-binding protein (Homo sapiens, UniProt P24387+Q13324).
T1 sequence (Q13324 whole entry): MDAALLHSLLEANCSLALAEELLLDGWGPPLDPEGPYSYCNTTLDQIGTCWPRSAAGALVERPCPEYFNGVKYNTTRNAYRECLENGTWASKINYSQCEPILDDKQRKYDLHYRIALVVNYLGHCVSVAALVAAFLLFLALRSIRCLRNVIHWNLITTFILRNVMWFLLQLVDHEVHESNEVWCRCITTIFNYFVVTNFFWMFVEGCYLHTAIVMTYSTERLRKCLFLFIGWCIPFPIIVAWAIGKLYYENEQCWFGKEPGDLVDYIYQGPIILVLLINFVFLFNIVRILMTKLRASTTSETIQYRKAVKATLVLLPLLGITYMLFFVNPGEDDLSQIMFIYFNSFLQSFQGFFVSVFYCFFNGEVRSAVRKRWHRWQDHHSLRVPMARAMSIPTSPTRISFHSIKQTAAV
T1 sequence (P24387 whole entry): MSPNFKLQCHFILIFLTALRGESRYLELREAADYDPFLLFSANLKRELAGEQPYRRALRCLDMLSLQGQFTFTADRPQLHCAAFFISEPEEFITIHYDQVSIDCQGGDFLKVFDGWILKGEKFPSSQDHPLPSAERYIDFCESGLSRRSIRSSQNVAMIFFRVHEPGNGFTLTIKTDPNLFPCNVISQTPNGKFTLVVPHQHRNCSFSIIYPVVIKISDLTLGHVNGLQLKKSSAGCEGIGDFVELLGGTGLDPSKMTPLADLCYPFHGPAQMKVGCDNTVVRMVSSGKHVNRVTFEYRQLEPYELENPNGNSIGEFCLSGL
Nature of the data set: activators of CRF receptor 2 with binding protein – uHTS hits, confirmation (AID 602473). In kind it is functional. To be noted: read-out: EC50_Mean.

Data set [3] has as its target T1, Corticotropin-releasing factor receptor 2/Corticotropin-releasing factor-binding protein. Nature of the data set: Dose Response confirmation of uHTS hits for small molecule antagonists of the CRF-binding protein and CRF-R2 receptor complex. In kind it is functional. The note with it: read-out: IC50_Mean.
A further data set has as its target T2, Streptokinase A (Streptococcus pyogenes serotype M1, UniProt P10520).
T2 sequence (P10520 whole entry): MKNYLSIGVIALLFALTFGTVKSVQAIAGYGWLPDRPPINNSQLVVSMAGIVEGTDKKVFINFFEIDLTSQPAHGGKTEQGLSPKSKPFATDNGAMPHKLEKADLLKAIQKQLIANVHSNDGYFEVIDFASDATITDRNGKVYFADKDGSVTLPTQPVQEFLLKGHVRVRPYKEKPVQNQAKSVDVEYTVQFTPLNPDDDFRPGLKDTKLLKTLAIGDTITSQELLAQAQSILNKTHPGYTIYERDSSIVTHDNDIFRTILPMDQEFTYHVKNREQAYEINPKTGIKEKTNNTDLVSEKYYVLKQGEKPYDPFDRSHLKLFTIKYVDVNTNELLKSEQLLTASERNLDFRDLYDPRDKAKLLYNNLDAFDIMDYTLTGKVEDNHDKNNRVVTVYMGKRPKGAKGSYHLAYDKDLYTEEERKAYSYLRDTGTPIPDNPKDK
Nature of the data set: S. pyogenes streptokinase expression inhibitors, potency, dose response, plasminogen activation absorbance, OD405 (AID 1914).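 Note: secreted streptokinase activity via plasminogen activation per viability signal from cell pellet.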 In kind it is functional, Streptococcus pyogenes M1 GAS.

For the next data set, the system named is Streptococcus. Nature of the data set: Group A Streptococcus viability loss, dose response, counter-screen for streptokinase expression inhibitor project, luminescence, BacTiterGlo (AID 1915).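 Note: potency for reduction of bacterial viability or growth.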 In kind it is functional, organism-based. In general terms: The purpose of a counterscreen is to sort out artefacts and off-target activity.
Data set [4] concerns Streptococcus sp. 'group A'. Nature of the data set: growth inhibition of control SK(-) GAS strain, dose response, counter-screen for streptokinase expression inhibitor project, luminescence, kanamycin, BacTiterGlo, confirmation (AID 1900). In kind it is functional, organism-based.
In a further data set the target is Cytochrome P450 2D6 (Homo sapiens, UniProt P10635).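 Note: CYP2D6 member of a cytochrome P450 panel assay.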
In the next data set the target is T3, Cytochrome P450 1A2 (Homo sapiens, UniProt P05177).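 Note: PubChem cytochrome P450 panel assay, CYP1A2 panel member.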
T3 sequence (P05177 whole entry): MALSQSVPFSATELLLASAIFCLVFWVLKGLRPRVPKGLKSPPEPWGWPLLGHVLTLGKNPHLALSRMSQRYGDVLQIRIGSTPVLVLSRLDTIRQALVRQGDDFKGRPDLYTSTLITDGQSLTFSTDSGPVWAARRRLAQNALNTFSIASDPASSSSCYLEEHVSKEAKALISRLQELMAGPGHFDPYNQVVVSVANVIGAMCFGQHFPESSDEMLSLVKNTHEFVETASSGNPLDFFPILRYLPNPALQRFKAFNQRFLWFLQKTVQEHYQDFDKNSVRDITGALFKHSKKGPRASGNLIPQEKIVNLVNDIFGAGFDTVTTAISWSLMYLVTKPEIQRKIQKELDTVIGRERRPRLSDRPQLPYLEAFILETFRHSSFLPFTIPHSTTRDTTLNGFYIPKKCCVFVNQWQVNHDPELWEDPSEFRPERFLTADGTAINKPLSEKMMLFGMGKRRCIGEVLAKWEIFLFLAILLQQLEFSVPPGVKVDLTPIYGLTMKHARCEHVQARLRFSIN

Chain of Cytochrome P450 3A4 (P08684 whole entry): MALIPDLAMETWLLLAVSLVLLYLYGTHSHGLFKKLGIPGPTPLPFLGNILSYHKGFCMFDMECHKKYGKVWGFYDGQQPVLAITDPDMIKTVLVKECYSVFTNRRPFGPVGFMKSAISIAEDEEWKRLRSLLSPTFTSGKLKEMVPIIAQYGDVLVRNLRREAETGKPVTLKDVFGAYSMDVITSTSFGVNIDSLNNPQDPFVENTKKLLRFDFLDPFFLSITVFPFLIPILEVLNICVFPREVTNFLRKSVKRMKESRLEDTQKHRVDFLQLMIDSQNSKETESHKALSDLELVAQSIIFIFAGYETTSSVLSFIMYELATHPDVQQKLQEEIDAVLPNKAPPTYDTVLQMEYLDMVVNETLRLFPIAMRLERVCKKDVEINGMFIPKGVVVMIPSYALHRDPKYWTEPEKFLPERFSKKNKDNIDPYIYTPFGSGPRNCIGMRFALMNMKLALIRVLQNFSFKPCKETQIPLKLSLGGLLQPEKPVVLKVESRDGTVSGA
Chain of Cytochrome P450 2C19 (P33261 whole entry): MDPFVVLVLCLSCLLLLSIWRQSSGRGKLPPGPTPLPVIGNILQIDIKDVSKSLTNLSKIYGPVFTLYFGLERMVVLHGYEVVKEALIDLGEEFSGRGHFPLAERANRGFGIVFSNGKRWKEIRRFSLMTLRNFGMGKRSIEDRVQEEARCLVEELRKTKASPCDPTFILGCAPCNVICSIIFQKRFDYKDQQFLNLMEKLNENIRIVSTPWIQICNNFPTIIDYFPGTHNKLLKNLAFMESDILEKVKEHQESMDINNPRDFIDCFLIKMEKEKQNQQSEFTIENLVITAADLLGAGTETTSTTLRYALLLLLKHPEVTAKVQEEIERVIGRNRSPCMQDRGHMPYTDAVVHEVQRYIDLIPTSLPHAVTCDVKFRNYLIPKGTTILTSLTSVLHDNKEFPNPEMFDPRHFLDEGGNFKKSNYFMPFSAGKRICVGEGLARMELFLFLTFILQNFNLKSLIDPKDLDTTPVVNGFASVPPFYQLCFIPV
Chain of Cytochrome P450 2C9 (P11712 whole entry): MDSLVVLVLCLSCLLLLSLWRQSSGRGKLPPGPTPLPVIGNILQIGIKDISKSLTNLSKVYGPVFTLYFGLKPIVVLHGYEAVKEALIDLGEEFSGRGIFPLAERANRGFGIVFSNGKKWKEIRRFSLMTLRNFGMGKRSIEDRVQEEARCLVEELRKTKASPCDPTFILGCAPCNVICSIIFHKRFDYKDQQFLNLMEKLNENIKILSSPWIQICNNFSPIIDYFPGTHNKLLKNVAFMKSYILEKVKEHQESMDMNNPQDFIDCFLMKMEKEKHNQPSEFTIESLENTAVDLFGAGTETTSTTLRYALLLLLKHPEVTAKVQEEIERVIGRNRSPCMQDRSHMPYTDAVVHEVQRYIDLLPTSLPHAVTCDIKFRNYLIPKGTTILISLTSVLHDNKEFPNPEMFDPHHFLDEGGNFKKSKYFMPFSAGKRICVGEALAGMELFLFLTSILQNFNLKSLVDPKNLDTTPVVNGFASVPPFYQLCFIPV
Chain of Cytochrome P450 2D6 (P10635 whole entry): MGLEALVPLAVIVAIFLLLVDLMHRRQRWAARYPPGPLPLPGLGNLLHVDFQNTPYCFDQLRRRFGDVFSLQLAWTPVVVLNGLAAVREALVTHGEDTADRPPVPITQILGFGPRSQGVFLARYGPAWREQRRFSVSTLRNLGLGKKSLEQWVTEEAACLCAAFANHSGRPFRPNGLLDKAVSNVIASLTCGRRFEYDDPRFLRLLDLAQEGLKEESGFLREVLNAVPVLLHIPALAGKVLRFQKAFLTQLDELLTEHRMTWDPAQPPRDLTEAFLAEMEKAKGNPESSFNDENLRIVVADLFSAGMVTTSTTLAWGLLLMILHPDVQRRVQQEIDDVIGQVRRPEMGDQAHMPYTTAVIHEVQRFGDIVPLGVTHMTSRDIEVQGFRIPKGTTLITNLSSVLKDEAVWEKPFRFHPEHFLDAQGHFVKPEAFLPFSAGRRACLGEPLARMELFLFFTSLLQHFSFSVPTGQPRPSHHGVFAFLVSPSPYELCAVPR

As for `COc1ccc(CN2CC3(CN(C(C)=O)C3)c3c([nH]c4cc(OC)ccc34)[C@@H]2CO)cc1`, the half-maximal activity concentration (AC50) in data set [1] is 9.9 µM (active).
The same measure, in the same setting: next, `CO[C@@H]1CN(C)C(=O)c2cc(NC(=O)NC3CCCCC3)ccc2OC[C@@H](C)N(CCc2ccccc2)C[C@H]1C`: 5.84 µM (active).
Turning to `O=c1c2ccccc2nc2n1CC/C2=C\c1ccccc1[N+](=O)[O-]`, the AC50 is 10 µM (inconclusive) on Cytochrome P450 3A4 and 3.98 µM (inconclusive) on Cytochrome P450 2C19 (read-out: AC50).
As to `COc1ccc(C2=C(C#N)C(=O)OC2)cc1`, the concentration at half-maximal activity (AC50) at Cytochrome P450 3A4 was 31.6 µM (inconclusive); at Cytochrome P450 2C9 it was 39.8 µM (inconclusive).
On the same counts, the results for `CCc1ccc(N2CC(C)Cn3c2nc2c3c(=O)n(CCN3CCOCC3)c(=O)n2C)cc1` (stereo unspecified) are 39.8 µM (inconclusive) and 0.178 µM (inconclusive).
Regarding `O=[N+]([O-])/C(C(Cl)=C(Cl)Cl)=C(/NC1CC1)Sc1ccccc1`, the EC50 in data set [2] is > 53 µM (inactive). Moreover, the IC50 in [3] was > 47.1 µM (inactive).
For `CSc1ncc(Cl)c(C(=O)Nc2ccc(S(=O)(=O)N3CCOCC3)cc2)n1`, the EC50 in data set [2] was > 53 µM (inactive). In data set [3], the IC50 was > 47.1 µM (inactive).
On the same counts, the results for `COc1cccc(/C(C)=N/NS(=O)(=O)c2ccc(Cl)cc2)c1` are > 53 µM (inactive) and > 47.1 µM (inactive).
With `Cc1cc(-c2cccc([N+](=O)[O-])c2)nc2ccc3ccccc3c12`, the AC50 at Cytochrome P450 3A4 was 3.16 µM (inconclusive); at Cytochrome P450 2C19 (read-out: AC50), 20 µM (inconclusive).
`Nc1ccc(N=Nc2ccccc2)cc1[N+](=O)[O-]`: in [2], the EC50 is > 53 µM (inactive). In addition, the IC50 in data set [3] was > 47.1 µM (inactive).
Regarding `N#Cc1ccc(-c2ccc([C@@H]3[C@@H](CO)N4C(=O)CN(C(=O)C5CCC5)C[C@@H]34)cc2)cc1`, in [1], the AC50 is 5.38 µM (active).
With `CCc1ccccc1NC(=O)NC(C)c1ccc2c(c1)OCO2` (stereo unspecified), the EC50 was > 53 µM (inactive) in [2], > 150 µM (not active) at Streptokinase A, > 150 µM (not active) with Streptococcus and > 150 µM (not active) in [4]. Moreover, the IC50 in data set [3] was > 47.1 µM (inactive).
`COC(=O)C(C)Sc1nc(O)c2cnn(-c3ccc(C)cc3)c2n1` (stereo unspecified): the AC50 on Cytochrome P450 3A4 is 14.1 µM (inconclusive); at Cytochrome P450 2C19 (read-out: AC50) it was 7.94 µM (inconclusive); on Cytochrome P450 2C9 it was 3.55 µM (inconclusive).
For the compound `Cc1ccc(C)c(NC(=S)Nc2ncccc2C)c1`, in data set [2], the EC50 was > 53 µM (inactive). Further, the IC50 in data set [3] is > 47.1 µM (inactive).
Consider `CC1=C(C(=O)OCc2ccccc2)C(c2ccc3ccccc3c2)NC(=O)N1CCCCCC(=O)O` (stereo unspecified), for which the AC50 at Cytochrome P450 3A4 was 10 µM (inconclusive); at Cytochrome P450 2C19 (read-out: AC50) it was 39.8 µM (inconclusive); on Cytochrome P450 2D6, 39.8 µM (inconclusive); at Cytochrome P450 1A2 it was 20 µM (inconclusive).
For `O=C(O)c1ccccc1-c1ccccc1C(=O)Nc1ccccc1`, the AC50 is 28.2 µM (inconclusive) at Cytochrome P450 3A4 and 35.5 µM (inconclusive) at Cytochrome P450 2C9.
For the compound `Cn1c(=O)n(Cc2ccccc2Cl)c2ccccc21`, in data set [2], the EC50 was > 53 µM (inactive). Further, the IC50 in [3] was > 47.1 µM (inactive).
On the same counts, the results for `CCCP(=O)(CC(=O)N(CC)CC)c1ccccc1` (stereo unspecified) are > 53 µM (inactive) and > 47.1 µM (inactive).
On the same counts, the results for `COc1ccccc1C1C(C(=O)c2sc(C)nc2C)=C(O)C(=O)N1CCN1CCOCC1` (stereo unspecified) are > 53 µM (inactive) and > 47.1 µM (inactive).
As to `CS(=O)(=O)c1ccccc1COC(=O)Nc1ccc(Cl)cc1`, the half-maximal activity concentration (AC50) on Cytochrome P450 3A4 was 12.6 µM (inconclusive); at Cytochrome P450 2D6, 10 µM (inconclusive).
Turning to `CCCn1c(=N)c(S(=O)(=O)c2ccccc2)cc2c(=O)n3ccccc3nc21`, the EC50 in data set [2] was > 53 µM (inactive). Also, the IC50 in data set [3] was > 47.1 µM (inactive).
Take `CCOC(=O)c1cc(=O)cc(C(=O)OCC)o1`: in data set [2], the EC50 was > 53 µM (inactive). For the same compound, in data set [3], the IC50 is > 47.1 µM (inactive).
On the same counts, the results for `CS(=O)(=O)Nc1nc2n(n1)C(c1ccccc1)CC(c1ccccc1)N2` (stereo unspecified) are > 53 µM (inactive) and > 47.1 µM (inactive).
In the case of `COc1cccc(C(=O)Nc2ccc3c(c2)C(=O)N(C)C[C@@H](OC)[C@H](C)CN(CCc2ccccc2)[C@H](C)CO3)c1`, the AC50 in data set [1] was 4.35 µM (active).
In the case of `COc1ccc(S(=O)(=O)N2CCCC(C(=O)NCc3ccncc3)C2)cc1` (stereo unspecified), the EC50 in data set [2] is > 53 µM (inactive). Besides, the IC50 in [3] is > 47.1 µM (inactive).
As to `OC[C@H]1CC[C@@H]2O[C@H](CCc3ccc(C#CCc4ccccc4)cc3)[C@@H](n3cc(-c4ccccc4)nn3)C[C@@H]2O1`, in data set [1], the half-maximal activity concentration (AC50) is 6.17 µM (active).
As to `COc1cc(CN2CC3(CCN(C(=O)c4cccnc4)CC3)c3c([nH]c4cc(OC)ccc34)[C@@H]2CO)cc(OC)c1`, in [1], the AC50 is 5.84 µM (active).
As for `CN1c2ccc(C#Cc3cccnc3)cc2[C@H]2[C@H](CCN2C(=O)C2CCCC2)[C@H]1CO`, the AC50 in data set [1] was 4 µM (active).
As for `O=c1cc(CN2CCN(Cc3ccccc3)CC2)c2cc(O)ccc2o1`, the EC50 in [2] was > 53 µM (inactive). In addition, the IC50 in data set [3] is > 47.1 µM (inactive).
Regarding `CC[C@H]1C2=C3C(CC[C@H]4C(OC)OC[C@](C)([C@@H]34)N(C(=O)OC(C)(C)C)C2)C(CO)C1CO` (stereo partly specified), the concentration at half-maximal activity (AC50) at Cytochrome P450 3A4 is 10 µM (inconclusive); at Cytochrome P450 2C19, “inconclusive”; at Cytochrome P450 2C9, 25.1 µM (inconclusive); on Cytochrome P450 1A2, 12.6 µM (inconclusive).
